# Reference: US4590063A, “Anticonvulsants” (Adria Laboratories, Inc., priority 1985, dated 1986)
# Legend:
# [1] = test system: tonic flexion-extension convulsions; test: Supramaximal electroshock antagonism (suppression of convulsions induced in mice by transcranal electroshock); assay type: in vivo, Male albino ICR-swiss mice; details: Mus musculus, oral gavage, 1 hour after administration, 60 hertz, 25 milliamps, 0.2 second, read-out: Supramaximal Electroshock Antagonism Approximate ED50
# Description: These examples illustrate the use of the compounds described in Examples 1 and 2 in suppressing convulsions induced in mice by supramaxal shock.
# (§1) Male albino ICR-swiss mice fasted for 5-6 hours and weighing 20-26 grams are used in all procedures. The compounds of the Examples 1 and 2 are dissolved in water and administered in dosages of 0.01 cc per gram body weight to groups of twelve mice via oral gavage at the milligrams per kilograms per body weight in the table below. One hour after administration of the compound, the mice are given a transcranal electroshock, 60 hertz, 25 milliamps of 0.2 second duration. This stimulus is approximately 3 times the current required to produce tonic flexion-extension convulsions in 100% of the control mice tested. The animals are then observed, and the number undergoing convulsion noted. When the ED50 is bracketed (at least one dose above and one dose below), an estimate of the ED50 is calculated. The acute LD50 is determined as follows: Groups of four mice each are given selected doses of the test compound and placed in plastic cages with food and water ad lib. Twenty-four hours later, the number of dead mice is noted. When the LD50 is bracketed (at least one dose above and one below) an estimate of the LD50 is calculated. The values for Valproic acid and Dilantin are included in the table for comparison.
# in vivo = details: mouse; for LD50 at 24 h: oral gavage, mice, read-out: Acute (24 hr.) Toxicity Approximate LD50; for safety ratio (LD50/ED50): po, LD50 (24 hr., mice) divided by ED50 (supramaximal electroshock), read-out: Approximate Safety Ratio LD50/ED50
# Description: as §1
# [2] = Solubility in water and ethyl alcohol; assay type: physicochemical; details: recrystallized product
# [3] = treatment of epilepsy, known drug; cited from earlier work
Structure (SMILES),ED50 [1] [mg/kg],LD50 at 24 h (in vivo) [mg/kg],safety ratio (LD50/ED50) (in vivo),solubility in ethyl alcohol [2],solubility in water [2],serious chronic side effects [3],dosage needed to be effective relative to toxic dosage [3]
"COc1cc(C(=O)NCCN(C)C)c(OC)c2ccccc12.Cl [1,4-dimethoxy-N-(2-dimethylaminoethyl)-2-naphthalene carboxamide hydrochloride]",~45,~750,~17,sparingly soluble,sparingly soluble,–,–
"COc1cc(C(=O)NCCCN(C)C)c(OC)c2ccccc12.Cl [1,4-dimethoxy-N-(3-dimethylaminopropyl)-2-naphthalenecarboxamide hydrochloride]",~75,~750,~10,sparingly soluble,sparingly soluble,–,–
"O=C1NC(=O)C(c2ccccc2)(c2ccccc2)N1 [Dilantin, phenytoin, reference compound]",~13,~417,–,–,–,megaloblastic anemia and osteomalacia,–
"CCCC(CCC)C(=O)O [Valproic Acid, reference compound]",~600,~1420,–,–,–,–,very close to those which are acutely toxic
